Values of other authors in US6514941B1, “Method of preparing a casein hydrolysate enriched in anti-hypertensive peptides” (Campina Melkunie B.V., priority 1999, dated 2003).

Tested on: SHRSP
Details: dose that is not hypotensive

In the case of `C[C@H](CS)C(=O)N1CCC[C@H]1C(=O)O` [captopril], the onset of stroke is listed as “inhibits the onset of stroke”.
